Test: in vitro
Assay type: cell-based
Conditions: human

Row | Structure (SMILES) | CC50
1 | CC(C)C(=O)OCC(=O)[C@@]12O[C@H](C3CCCCC3)O[C@@H]1C[C@H]1[C@@H]3CCC4=CC(=O)C=C[C@]4(C)[C@H]3[C@@H](O)C[C@@]12C [Cic, Ciclesonide] | > 30 µM
2 | C[C@]12C=CC(=O)C=C1CC[C@@H]1[C@@H]2[C@@H](O)C[C@@]2(C)[C@H]1C[C@H]1O[C@@H](C3CCCCC3)O[C@]12C(=O)CO [Cic2, desisobutyryl ciclesonide] | > 30 µM

— paper PMC9014634 (Journal of Pharmacological Sciences, 2022)
